From PMC3816703, “Toxicity Studies on Novel N-Substituted Bicyclo-Heptan-2-Amines at NMDA Receptors” (Pharmaceuticals, 2013)
Read-outs that look alike come from different tables or passages of the source.

Experiments:
[1] = test system: N2a cells; assay: MTT cell viability assay on N2a cells (24 h treatment); format: cell-based, Mouse; conditions: Mus musculus, read-out: MTT test (IC50)
Method: (§1) To examine neuronal cell toxicity, N2a cells were exposed to each of compounds 5a–f or memantine for 24 h at 0–500 µM concentrations, and cell viability was measured by MTT assay. In the present experiments, increasing the concentration of antagonists increased the toxicity of both test compounds and memantine in dose dependent manner (Figure 4A,B). […] No significant reduction in cell concentration was observed using phase contrast microscopy (Figure 5). The mean percentage of viable cells was 94.6 ± 0.29 (p > 0.05), 91.6 ± 0.26 (p > 0.05) for memantine and 93 ± 0.35 (p > 0.05), 77 ± 0.35 (p > 0.05) for compound 5a at 10 and 50 µM, respectively, as compared to untreated cells.
(§2) Mouse Neuro-2a (CCL-131, ATCC, Manassas, VA, USA) and MDCK (CCL-34, ATCC) were used in this study. The cells were routinely propagated using Dulbecco’s Modification of Eagle’s Medium (DMEM, ATCC) for N2a and Eagle’s Minimum Essential Medium (EMEM, ATCC) for MDCK cells, supplemented with 10% fetal bovine serum (FBS, ATCC) and 1% penicillin/ streptomycin (Gibco, Grand Island, NY, USA) in 100 cm^2 Petri-dishes (Corning, Tewksbury, MA, USA) at 37 °C in 5% CO2. For neuronal differentiation, N2a cells were cultivated in DMEM supplemented with 2% FBS in the presence of 20 µM retinoic acid (RA, Sigma, St. Louis, MO, USA).
(§3) All six compounds 5a–f were obtained as salts. Stock solutions (1 mM) were prepared in double distilled water. The treatment concentrations for the compounds and for memantine (Sigma) were 10, 50, 100, 200, 300, and 500 μM. Cells were allowed to attach overnight prior to treatment. H2O2 served as positive control. Working concentrations were prepared immediately prior to treatment by dilution with medium.
(§4) The MTT (3-(4,5-dimethylthiazole-2-yl)-2,5-diphenyltetrazolium bromide) assay is a well-documented and widely-used cell viability assay. MTT is incorporated into the cell by endocytosis and is reduced by mitochondrial enzymes in living cells to a blue colored formazan precipitate. The absorbance of dissolved formazan in the visible region correlates with the number of intact alive cells. Cells were plated at a concentration of 13,000 to 20,000 cells/well on a 96-well round-bottom plate (Fisher, Pittsburgh, PA, USA). The MTT assay (ATCC, 30-1010K) was performed according to the manufacturer’s instructions. The following determinants were optimized for each cell line: plating cell concentration; incubation time with MTT reagent, and incubation time with detergent reagent. Absorbance was recorded at 570 nm by a microtiter plate reader (VICTOR, PerkinElmer, Waltham, MA, USA). The number of surviving cells is directly proportional to the level of the formazan product generated. Each experiment was repeated on three separate occasions and results are presented as the mean absorbance ± S.E.M.
(§5) The Student’s t test was applied to evaluate the significance of differences among each group. A p value of 0.05 or less was considered to be significant. Error bars in the graphs are expressed as S.E.M. with experiments performed in triplicate. IC50 values were calculated according to the SoftMax Pro GxP analytical software. Standard Curves were plotted using the OD Mean Value (Y) versus Concentration (X) and applying a 4-Parameter fit with a variable weight source curve fit option of 1/Y^2. Results are presented as mean ± S.E.M.

[2] = test system: MDCK cells; assay: MTT cell viability assay on MDCK cells (24 h treatment); format: cell-based, Canine; conditions: for IC50: Canis lupus familiaris, read-out: MTT test (IC50)
Method: (§6) MDCK cells were used to simulate toxicities of the novel NMDA receptor uncompetitive antagonists 5a–f on BBB in vitro [18, 19]. We treated cells with 0–500 µM concentrations of test compound or memantine for 24 h. Cell viability was assessed by the capacity of cells to reduce the MTT dye (Figure 2A,B). […] It is known, that under therapeutic conditions in patients, the serum level of memantine is about 1 µM [20]. Since the binding potencies of some of the target compounds are in same range (micromolar) as that of memantine, the 1 µM concentration was used as reference in estimating possible therapeutic indexes. […] The mean percentage of viable cells was 101 ± 0.24 (p > 0.05), 95.6 ± 0.25 (p > 0.05) for memantine and 104 ± 0.11 (p > 0.05), 105 ± 0.06 (p > 0.05) for compound 5a at 10 and 50 µM, respectively, as compared to untreated cells.
as §2, §3, §4, §5

[3] = MTT cell viability assay on N2a cells (24 h treatment); format: cell-based, Mouse; conditions: mouse, N2a cells, 24 h, as compared to untreated cells, read-out: mean percentage of viable cells
Method: as §1, §2, §3, §4, §5

[4] = MTT cell viability assay on MDCK cells (24 h treatment); format: cell-based, Canine; conditions: dog, MDCK cells, 24 h, as compared to untreated cells, read-out: mean percentage of viable cells
Method: as §6, §2, §3, §4, §5

[5] = test system: MES (maximal electroshock)-induced neural damage; parameters: method as in PMID 21496213; conditions: rodents; among compounds 5a–f; cited from earlier work
[6] = test system: NMDA receptor; parameters: method as in PMID 21496213; conditions: among compounds 5a–f; cited from earlier work
[7] = patients; cited from earlier work
[8] = N2a cells, 24 h treatment, mean n = 3, concentration yielding 50% inhibition of mitochondrial enzyme activity

Structure (SMILES) | IC50 ([1]; N2a, 24 h) [µM] | IC50 ([2]; MDCK, 24 h) [µM] | IC50 [1, 8] [µM] | also measured
c1ccc(C2(NCCN3CCCC3)CC3CCC2C3)cc1 (centres unmarked) [5e, 2-phenyl-N-(2-(pyrrolidin-1-yl)ethyl) bicyclo[2.2.1]heptan-2-amine] | 165 | 313 | – | –
c1ccc(C2(NCCN3CCCCC3)CC3CCC2C3)cc1 (centres unmarked) [5a, 2-phenyl-N-(2-(piperidin-1-yl)ethyl)bicyclo[2.2.1]heptan-2-amine] | 154 | 155 | – | viability at 24 h, 10 µM [3]: 93 ± 0.35%; viability at 24 h, 50 µM [3]: 77 ± 0.35%; viability at 24 h, 10 µM [4]: 104 ± 0.11%; viability at 24 h, 50 µM [4]: 105 ± 0.06%; protection from MES (maximal electroshock)-induced neural damage [5]: greatest degree of protection; affinity for NMDA receptor [6]: highest affinity
CC12CC3CC(C)(C1)CC(N)(C3)C2 [memantine, 1-amino-3,5-dimethyladamantine, reference compound] | – | – | 219 | viability at 24 h, 10 µM [3]: 94.6 ± 0.29%; viability at 24 h, 50 µM [3]: 91.6 ± 0.26%; serum level under therapeutic conditions [7]: about 1 µM; viability at 24 h, 10 µM [4]: 101 ± 0.24%; viability at 24 h, 50 µM [4]: 95.6 ± 0.25%; IC50 ([2]; MDCK cells, 24 h treatment, mean n = 3, concentration yielding 50% inhibition of mitochondrial enzyme activity): 197 µM; concentration above which a concentration dependent decline in numbers of viable cells occurs ([2]; MDCK cells, 0–500 µM, 24 h, MTT): higher than 100 µM
Fc1ccc(C2(NCCN3CCCCC3)CC3CCC2C3)cc1 (centres unmarked) [5b] | 291 | 201 | – | –
Fc1ccc(C2(NCCN3CCOCC3)CC3CCC2C3)cc1 (centres unmarked) [5d, 2-(4-fluorophenyl)-N-(2-morpholino-ethyl)bicyclo [2.2.1]heptan-2-amine] | – | > 1000 | > 1000 | –
Fc1ccc(C2(NCCN3CCCC3)CC3CCC2C3)cc1 (centres unmarked) [5f] | – | 305 | 71 | –
c1ccc(C2(NCCN3CCOCC3)CC3CCC2C3)cc1 (centres unmarked) [5c, N-(2-morpholinoethyl)-2-phenylbicyclo [2.2.1]heptan-2-amine] | 253 | 424 | – | –
